In patent US8415312B2, “Compound which is a nystatin derivative” (Biosergen AS, priority 2007, dated 2013):
Converted amounts (≈) assume the structure as drawn.

Experiments:
[1] = tested on: mice (C57B1/6xDBA/2)F1 B6D2F1; settings: single injection into tail vein, probit analysis
Procedure: Male mice of hybrids of first generation (C57B1/6xDBA/2)F1 B6D2F1, weight 20-22 g., received from the Central farm. “Kryukovo” of Russian Academies of Medical Science (RAMS) were used. Animals were maintained in a vivarium in plastic cages (with hardwood bedding in environmentally controlled conditions: 24±1° C., 12/12 hours light/dark cycle) on a standard diet of bricketed forages with easy access to drinking water (ad libitum). After a 2-week quarantine period, healthy animals were used in experimental work.
The solutions were prepared as follows: dry antibiotic substances (5 mg) were mixed with dry sodium deoxycholate (4.1 mg) in a sterile glass vial. 10 mL of phosphate buffer (NaH2PO4—1.59 g; Na2HPO4—0.96 g; H2O—to 100 mL) was added to the mix and the suspension was immediately subjected to vigorous shaking for 10 minutes until homogeneous suspensions were formed.
Preparations of amphotericin B and S44HP were also prepared in the same way.
The antibiotic preparations were singly injected into the mice's tail vein within 1-1.5 hours after the preparation of solutions. […] Each antibiotic was used in a range of doses resulting in 0% to 100% lethality and a minimum of 3 intermediate doses. Animals were randomized into groups, each containing 6 mice.

[2] = tested on: Candida albicans ATCC 14053; experiment: Antifungal susceptibility study (1), broth microdilution MIC; format: cell-based; settings: lowest concentration preventing any visible growth, read at 48 hours, 35° C., RPMI 1640 pH 7.0
Procedure: (§1) ACROS ORGANICS, New Jersey, USA), pH 7.0, was used in study. […] Then these DMSO solutions were diluted 50-fold (first 10-fold and then 5-fold) in the test medium. […] The solutions were prepared just before using. The organisms used for susceptibility testing were: Candida albicans ATCC 14053, Cryptococcus humicolus ATCC 9949, Aspergillus niger ATCC 16404 and Fusarium oxysporum VKM F-140 (=CMI, IMI 90473). Organisms were stored on potato dextrose agar […] 50% glycerol solution at -70° C. For short-term storage, stock cultures were stored on agar […] 4° C. The cultures of yeasts were sub-cultured onto Sabouraud dextrose (SAB) agar and incubated for 24 hours at 35° C. (Candida albicans) or for 48 hours at 25° C. (Cryptococcus humicolus) to obtain a freshly grown pure culture. The cultures of moulds were sub-cultured onto potato dextrose agar and incubated for 7 days at 35° C. […] (Fusarium oxysporum) to ensure maximum sporulation. […] Inoculum quantitation was performed by plating dilution of the inoculum on Sabouraud dextrose agar to determine the viable number of CFU per milliliter. Sterile 96-well flat-bottomed microtitration plates were used for testing. 100 μl of diluted inocula were dispensed into each microdilution well containing 100 μl of the double dilutions of compounds. Drug-free and yeast/mould-free controls were included. Microdilution trays were incubated at 35° C. (Candida albicans and moulds) or 25° C. (Cryptococcus humicolus) without agitation and observed for the presence or absence of visible growth. […] Minimal inhibitory concentrations (MICs) were read at 48 hours.

[3] = tested on: Cryptococcus humicolus ATCC 9949; experiment: as above; format: cell-based; settings: lowest concentration preventing any visible growth, read at 48 hours, 25° C., RPMI 1640 pH 7.0
Procedure: as §1

[4] = tested on: Aspergillus niger ATCC 16404; experiment: as above; format: cell-based; settings: lowest concentration preventing any visible growth, read at 48 hours, 35° C., RPMI 1640 pH 7.0
Procedure: (§2) ACROS ORGANICS, New Jersey, USA), pH 7.0, was used in study. […] Then these DMSO solutions were diluted 50-fold (first 10-fold and then 5-fold) in the test medium. […] The solutions were prepared just before using. The organisms used for susceptibility testing were: Candida albicans ATCC 14053, Cryptococcus humicolus ATCC 9949, Aspergillus niger ATCC 16404 and Fusarium oxysporum VKM F-140 (=CMI, IMI 90473). Organisms were stored on potato dextrose agar […] 50% glycerol solution at -70° C. For short-term storage, stock cultures were stored on agar […] 4° C. The cultures of yeasts were sub-cultured onto Sabouraud dextrose (SAB) agar and incubated for 24 hours at 35° C. (Candida albicans) or for 48 hours at 25° C. (Cryptococcus humicolus) to obtain a freshly grown pure culture. The cultures of moulds were sub-cultured onto potato dextrose agar and incubated for 7 days at 35° C. […] (Fusarium oxysporum) to ensure maximum sporulation. […] Finally, the suspensions were vortexed for 15 s to break up clumps of cells and then filtered through four layers of sterile gauze. The densities of conidial spore suspensions was measured at 530 nm and adjusted to 0.09-0.11 for Aspergillus niger and 0.15-0.17 for Fusarium oxysporum. These suspensions were diluted 1:50 with the standard medium. […] Inoculum quantitation was performed by plating dilution of the inoculum on Sabouraud dextrose agar to determine the viable number of CFU per milliliter. Sterile 96-well flat-bottomed microtitration plates were used for testing. 100 μl of diluted inocula were dispensed into each microdilution well containing 100 μl of the double dilutions of compounds. Drug-free and yeast/mould-free controls were included. Microdilution trays were incubated at 35° C. (Candida albicans and moulds) or 25° C. (Cryptococcus humicolus) without agitation and observed for the presence or absence of visible growth. […] Minimal inhibitory concentrations (MICs) were read at 48 hours.

[5] = tested on: Fusarium oxysporum VKM F-140; experiment: as above; format: cell-based; settings: lowest concentration preventing any visible growth, read at 48 hours, 35° C., RPMI 1640 pH 7.0
Procedure: as §2

What does the source list for CC1C=CC=CC=CC=CC=CC=CC=CC(OC2OC(C)C(O)C(N)C2O)CC2OC(O)(CC(O)C(O)CCC(O)CC(O)CC(O)CC(=O)OC(C)C(C)C1O)CC(O)C2C(=O)NCCN(C)C.NC(CCC(=O)O)C(=O)O (centres unmarked) [Compound 28]?
LD50 [1]: 22.1 mg/kg; MTD [1]: 14.7 mg/kg

Which LD50 [1] does the source give for CC1C=CC=CC=CC=CC=CC=CC=CC(OC2OC(C)C(O)C(N)C2O)CC2OC(O)(CC(O)CCCC(O)CC(O)CC(O)CC(=O)OC(C)C(C)C1O)CC(O)C2C(=O)NCCN(C)C.NC(CCC(=O)O)C(=O)O (centres unmarked) [Compound 27] here?
The LD50 was 20.6 mg/kg.

And the MTD [1]?
Its MTD is 10.8 mg/kg.

What does the source list for CC1O[C@@H](O[C@H]2/C=C/C=C/C=C/C=C/C=C/C=C/C=C/[C@H](C)[C@@H](O)[C@@H](C)[C@H](C)OC(=O)C[C@H](O)C[C@H](O)C[C@H](O)CC[C@@H](O)[C@H](O)C[C@]3(O)C[C@H](O)[C@@H](C)[C@H](C2)O3)[C@H](O)C(NCc2ccc(N(C)C)cc2)[C@@H]1O (some centres unmarked) [Compound 50, N-(4-N,N-Di-methylaminobenzyl) Compound 1]?
MIC Candida albicans ATCC 14053 [2]: 2 mg/L (≈ 1.95 µM); MIC Cryptococcus humicolus ATCC 9949 [3]: 2 mg/L (≈ 1.95 µM); MIC Aspergillus niger ATCC 16404 [4]: 2 mg/L (≈ 1.95 µM); MIC Fusarium oxysporum VKM F-140 [5]: 8 mg/L (≈ 7.79 µM)

Which “MIC Candida albicans ATCC 14053” value [2] does the source give for CC1C=CC=CC=CC=CC=CC=CC=CC(OC2OC(C)C(O)C(NCC3(O)OCC(O)C(O)C3O)C2O)CC2OC(O)(CC(O)C(O)CCC(O)CC(O)CC(O)CC(=O)OC(C)C(C)C1O)CC(O)C2C(=O)NCCCN(C)C (centres unmarked) [Compound 31, N-tagatopyronosyl S44HP DMAP amide] here?
The value was 1 mg/L (≈ 0.854 µM).

And the “MIC Cryptococcus humicolus ATCC 9949” value [3]?
Its value is 2 mg/L (≈ 1.71 µM).

And the “MIC Aspergillus niger ATCC 16404” value [4]?
Its value is 2 mg/L (≈ 1.71 µM).

And the “MIC Fusarium oxysporum VKM F-140” value [5]?
The value was 4 mg/L (≈ 3.42 µM).

With CC1O[C@@H](O[C@H]2/C=C/C=C/C=C/C=C/C=C/C=C/C=C/[C@H](C)[C@@H](O)[C@@H](C)[C@H](C)OC(=O)C[C@H](O)C[C@H](O)C[C@H](O)CC[C@@H](O)[C@H](O)C[C@]3(O)C[C@H](O)[C@@H](C(=O)NCCN(C)C)[C@H](C2)O3)[C@H](O)C(NC(=O)c2ccc(CN)cc2)[C@@H]1O (some centres unmarked) [Compound 46] as the molecule, how does the “MIC Candida albicans ATCC 14053” value [2] read?
The value was 2 mg/L (≈ 1.77 µM).

And the “MIC Cryptococcus humicolus ATCC 9949” value [3]?
The value was 2 mg/L (≈ 1.77 µM).

And the “MIC Aspergillus niger ATCC 16404” value [4]?
The value was 2 mg/L (≈ 1.77 µM).

What about the “MIC Fusarium oxysporum VKM F-140” value [5] of the same molecule?
The value was 4 mg/L (≈ 3.55 µM).

Which results are given for CC1O[C@@H](O[C@H]2/C=C/C=C/C=C/C=C/C=C/C=C/C=C/[C@H](C)[C@@H](O)[C@@H](C)[C@H](C)OC(=O)C[C@H](O)C[C@H](O)C[C@H](O)CC[C@@H](O)[C@H](O)C[C@]3(O)C[C@H](O)[C@@H](C)[C@H](C2)O3)[C@H](O)C(N)[C@@H]1O.N[C@@H](CC(=O)O)C(=O)O (some centres unmarked) [Compound 55]?
MIC Candida albicans ATCC 14053 [2]: 2 mg/L; MIC Cryptococcus humicolus ATCC 9949 [3]: 2 mg/L; MIC Aspergillus niger ATCC 16404 [4]: 2 mg/L; MIC Fusarium oxysporum VKM F-140 [5]: 2 mg/L

CC1O[C@@H](O[C@H]2/C=C/C=C/C=C/C=C/C=C/C=C/C=C/[C@H](C)[C@@H](O)[C@@H](C)[C@H](C)OC(=O)C[C@H](O)C[C@H](O)C[C@H](O)CC[C@@H](O)[C@H](O)C[C@]3(O)C[C@H](O)[C@@H](C)[C@H](C2)O3)[C@H](O)C(N)[C@@H]1O.N[C@H](CCC(=O)O)C(=O)O (some centres unmarked) [Compound 54] was tested. Which “MIC Candida albicans ATCC 14053” value [2] did it give?
The value was 2 mg/L.

And the “MIC Cryptococcus humicolus ATCC 9949” value [3]?
The value was 2 mg/L.

What about the “MIC Aspergillus niger ATCC 16404” value [4] of the same molecule?
Its value is 2 mg/L.

What about the “MIC Fusarium oxysporum VKM F-140” value [5] of the same molecule?
The value was 2 mg/L.

Which “MIC Candida albicans ATCC 14053” value [2] does the source give for CC1O[C@@H](O[C@H]2/C=C/C=C/C=C/C=C/C=C/C=C/C=C/[C@H](C)[C@@H](O)[C@@H](C)[C@H](C)OC(=O)C[C@H](O)C[C@H](O)C[C@H](O)CC[C@@H](O)[C@H](O)C[C@]3(O)C[C@H](O)[C@@H](C(=O)NCCN(C)C)[C@H](C2)O3)[C@H](O)C(NC(=O)CN(C)C)[C@@H]1O (some centres unmarked) [Compound 45] here?
The value was 1 mg/L (≈ 0.926 µM).

And the “MIC Cryptococcus humicolus ATCC 9949” value [3]?
The value was 2 mg/L (≈ 1.85 µM).

And the “MIC Aspergillus niger ATCC 16404” value [4]?
The value was 1 mg/L (≈ 0.926 µM).

What about the “MIC Fusarium oxysporum VKM F-140” value [5] of the same molecule?
Its value is 4 mg/L (≈ 3.71 µM).

CC1O[C@@H](O[C@H]2/C=C/C=C/C=C/C=C/C=C/C=C/C=C/[C@H](C)[C@@H](O)[C@@H](C)[C@H](C)OC(=O)C[C@H](O)C[C@H](O)C[C@H](O)CC[C@@H](O)[C@H](O)C[C@]3(O)C[C@H](O)[C@@H](C(=O)NCCN(C)C)[C@H](C2)O3)[C@H](O)C(NCC2(O)OC[C@@H](O)[C@H](O)[C@@H]2O)[C@@H]1O (some centres unmarked) [Compound 42, N-tagatopyronosyl S44HP DMAE amide] was tested. Which “MIC Candida albicans ATCC 14053” value [2] did it give?
Its value is 0.5 mg/L (≈ 0.432 µM).

What about the “MIC Cryptococcus humicolus ATCC 9949” value [3] of the same molecule?
The value was 1 mg/L (≈ 0.865 µM).

What about the “MIC Aspergillus niger ATCC 16404” value [4] of the same molecule?
Its value is 1 mg/L (≈ 0.865 µM).

And the “MIC Fusarium oxysporum VKM F-140” value [5]?
Its value is 2 mg/L (≈ 1.73 µM).

Which results are given for CC1C=CC=CC=CC=CC=CC=CC=CC(OC2OC(C)C(O)C(NCC3(O)OCC(O)C(O)C3O)C2O)CC2OC(O)(CC(O)C(O)CCC(O)CC(O)CC(O)CC(=O)OC(C)C(C)C1O)CC(O)C2C(=O)NCCCN(C)C (centres unmarked) [Compound 30]?
MIC Candida albicans ATCC 14053 [2]: 1 mg/L (≈ 0.854 µM); MIC Cryptococcus humicolus ATCC 9949 [3]: 1 mg/L (≈ 0.854 µM); MIC Aspergillus niger ATCC 16404 [4]: 1 mg/L (≈ 0.854 µM); MIC Fusarium oxysporum VKM F-140 [5]: 4 mg/L (≈ 3.42 µM)

How did the “MIC Candida albicans ATCC 14053” value [2] turn out when CC1C=CC=CC=CC=CC=CC=CC=CC(OC2OC(C)C(O)C(NC(=O)C(N)CCCCN)C2O)CC2OC(O)(CC(O)C(O)CCC(O)CC(O)CC(O)CC(=O)OC(C)C(C)C1O)CC(O)C2C(=O)O (centres unmarked) [Compound 23] was run?
Its value is 4 mg/L (≈ 3.8 µM).

And the “MIC Cryptococcus humicolus ATCC 9949” value [3]?
The value was 4 mg/L (≈ 3.8 µM).

And the “MIC Aspergillus niger ATCC 16404” value [4]?
The value was 8 mg/L (≈ 7.6 µM).

And the “MIC Fusarium oxysporum VKM F-140” value [5]?
The value was 8 mg/L (≈ 7.6 µM).

What does the source list for CC1O[C@@H](O[C@H]2/C=C/C=C/C=C/C=C/C=C/C=C/C=C/[C@H](C)[C@@H](O)[C@@H](C)[C@H](C)OC(=O)C[C@H](O)C[C@H](O)C[C@H](O)CC[C@@H](O)[C@H](O)C[C@]3(O)C[C@H](O)[C@@H](C(=O)NCCN(C)C)[C@H](C2)O3)[C@H](O)C(NCc2ccc(N(C)C)cc2)[C@@H]1O (some centres unmarked) [Compound 43]?
MIC Candida albicans ATCC 14053 [2]: 1 mg/L (≈ 0.887 µM); MIC Cryptococcus humicolus ATCC 9949 [3]: 1 mg/L (≈ 0.887 µM); MIC Aspergillus niger ATCC 16404 [4]: 1 mg/L (≈ 0.887 µM); MIC Fusarium oxysporum VKM F-140 [5]: 4 mg/L (≈ 3.55 µM)
